Data: article PMC6161432 (The Journal of Venomous Animals and Toxins Including …, 2018)
Entries after “also recorded” stand apart in the source; their conditions may differ. Read-outs that look alike come from different tables or passages of the source.

Tests used:
[1] = Cytotoxicity against mammalian cells (MTT assay); settings: mouse
[2] = test system: Leishmania (L.) infantum promastigotes; experiment: Activity against L. (L.) infantum promastigotes (MTT viability assay); format: cell-based; settings: 48 h at 24 °C, NA = not active, maximum tested concentration 100 μM; for EC50: read-out: EC50 Leishmania (L.) infantum Promastigote (95% CI)
Procedure: (§1) Isolated promastigotes of Leishmania (L.) infantum (MHOM/BR/1972/LD) were maintained in M-199 medium supplemented with 10% calf serum and 0.25% hemin at 24 °C. The L. (L.) infantum (MHOM/BR/1972/LD) was maintained in hamsters (Mesocricetus auratus). Amastigotes were harvested from spleens of infected hamsters. The animals were infected with 10^8 amastigotes (300 μL) by the i.p. route. At 60 days post-infection, the animals were euthanized, and the spleens analyzed by light microscopy using Giemsa-stained smears. The parasite load was expressed in Leishman-Donovan units (i.e., the number of amastigotes per 1000 nucleated cells x organ weight [in g] × 2 × 10^5). Briefly, the spleen was macerated in a tissue grinder tube containing 5 mL of phosphate-buffered saline (PBS), whereas the amastigotes were separated by differential centrifugation to obtain a suspension of parasites. The first centrifugation of the spleen suspension (0.8 rpm) was employed to separate the red and white cells (pellet) from the amastigote forms (supernatant). Next, a second centrifugation of the supernatant from the previous step (2.8 rpm) was performed to concentrate the amastigote forms.
Promastigotes were counted in a Neubauer hemocytometer and seeded at 1 × 10^6/well to obtain a final volume of 150 μL. Controls with DMSO and without drugs were also performed. Miltefosine was dissolved in H2O at 30 mg/mL and used as a standard drug. […] Each point was tested in duplicate. The plate was incubated for 48 h at 24 °C and the viability of promastigotes was verified by morphology in light microscopy and by the MTT assay. Briefly, MTT ([…]) was dissolved in PBS, sterilized through 0.22 μm membranes and added (20 μL/well) for 4 h at 24 °C. Promastigotes were incubated without compounds and used as viability control. Formazan extraction was performed using 10% SDS for 18 h (80 μL/well) at 24 °C and the optical density (OD) was determined in a Multiskan MS (UNISCIENCE) at 550 nm. One hundred percent (100%) viability was expressed based on the OD of control promastigotes, after normalization.
(§2) The obtained data represent the mean and standard deviation of duplicate samples from two independent assays. EC50 values were calculated using sigmoid dose–response curves in the software GraphPad Prism 5.0; the 95% confidence intervals are included in parentheses. The Mann–Whitney test was used for the significance test (P value).

[3] = test system: Leishmania (L.) infantum intracellular amastigotes; experiment: Activity against L. (L.) infantum intracellular amastigotes in mouse peritoneal macrophages (Giemsa counting, parasitic index); format: cell-based; settings: for EC50: read-out: EC50 Leishmania (L.) infantum Amastigote (95% CI)
Procedure: as §1
Peritoneal macrophages were collected from the peritoneal cavity of female BALB/c mice by washing with RPMI-1640 without phenol red, supplemented with 10% fetal bovine serum.
Amastigotes were isolated from spleens of previously infected hamsters, and separated by differential centrifugation. The tissue sample was macerated to break the cell membranes to release all cell contents including the amastigotes. Then the lysate was subjected to two repeated centrifugations (0.8 rpm followed 2.8 rpm) where density separation causes a sediment. The supernatant and the pellet were recovered via the first and second centrifugation, respectively. […] Non-internalized parasites were removed by washing once with medium, whereas tested compounds were incubated with infected macrophages for 96 h. Miltefosine was also used as a standard control drug. Subsequently, the cells were fixed with MeOH, stained with Giemsa and observed through a light microscope. The parasite burden was determined by the ratio of infected macrophages versus the mean number of amastigotes per macrophage out of 500 macrophages, i.e., the parasitic index (PI). […] Each point was tested in duplicate.
as §2

[4] = test system: NCTC clone L-929 cells; experiment: Cytotoxicity against mammalian cells (MTT assay); settings: CC50 against mammalian cells / EC50 against amastigotes
[5] = intracellular amastigotes in BALB/c peritoneal macrophages, 96 h incubation, NA = not active, maximum tested concentration 100 μM
[6] = Peritoneal macrophage, 96 h, intracellular amastigotes in BALB/c peritoneal macrophages, 96 h incubation, NA = not active, maximum tested concentration 100 μM

Structure (SMILES)	CC50 at 48 h ([1]; NCTC clone L-929 cells)	EC50 Leishmania (L.) infantum Promastigote (95% CI) [2]	EC50 Leishmania (L.) infantum Amastigote (95% CI) [3, 5]	SI Amastigote (selectivity index) [4]	EC50 ([2]; 48 h)	EC50 [3, 6]	CC50 at 48 h [1]	EC50 Leishmania (L.) infantum Amastigote (95% CI) ([3]; 96 h, 100 µM)	EC50 [2]	EC50 [3, 5]
C=CCc1ccc(Oc2cc([C@H](O)C=C)cc(OC)c2O)c(OC)c1 [Compound 3, 1-[(7R)-hydroxy-8-propenyl]-3-[3′-methoxy-1′-(8′-propenyl)-phenoxy]-4-hydroxy-5-methoxybenzene]	> 200 µM	no activity	inactive							
C=CCc1ccc(Oc2cc([C@H](O)C=C)cc(OC)c2OC)c(OC)c1 [Compound 4, 1-[(7R)-hydroxy-8-propenyl]-3-[3′-methoxy-1′-(8′-propenyl)-phenoxy]-4,5-dimethoxybenzene]	> 200 µM			> 2.9	65.4 µM	67.7 µM				
C=CCc1cc(OC)c(O)c(-c2cc(CC=C)cc(OC)c2O)c1 [Compound 5]	58.1 µM	no activity	inactive							
C=CCc1cc(OC)c(OC)c(-c2cc(CC=C)cc(OC)c2OC)c1 [Compound 6, dehydrodieugenol dimethyl ether]	> 200 µM			> 14.6	88.8 µM	13.7 µM				
C=CCc1ccc(O)c(OC)c1 [eugenol, reference compound]	> 200 µM	no activity	did not display activity; also recorded: no activity							
C=CCc1ccc(OC)c(OC)c1 [methyleugenol]			did not display activity				> 200 µM	no activity		
CCCCCCCCCCCCCCCCOP(=O)([O-])OCC[N+](C)(C)C [miltefosine, reference compound]	122 µM			7.2	16.9 µM	16.4 µM			16.4 µM	16.9 µM
